Laboratory results from patent US20260241119A1, “METERED DOSE INHALERS AND SOLUTIONS INCLUDING CANNABINOIDS IN HFA-152A” (Kindeva Drug Delivery L.P., priority 2023, published 2026).
≈ marks a conversion by molar mass, not a printed value. Read-outs that look alike come from different tables or passages of the source.

Tests used:
[1] = Equilibrium saturated solubility in HFA-227 (comparative); format: physicochemical; conditions: organic solvent or mixture, thermodynamic from solid, room temperature
Procedure: (§1) In this Example, the equilibrium saturated solubility of CBD or Δ-9-THC individually in HFA-227 and HFA-134a was measured.
(§2) […]. Each solution was shaken at room temperature for 4 days, after which each solution was filtered to remove undissolved CBD and/or Δ-9-THC, and the concentration of each cannabinoid was measured. The equilibrium saturated solubility of each cannabinoid in each propellant was measured at room temperature.

[2] = Equilibrium saturated solubility in HFA-152a without cosolvent; format: physicochemical; conditions: organic solvent or mixture, thermodynamic from solid, no cosolvent
Procedure: In this Example, the equilibrium saturated solubility of Δ-9-THC and CBD individually in HFA-152a. was measured.
[…]. Each solution was covered with aluminum foil to prevent UV light from reaching the drug. A first set of solutions was then shaken at room temperature for 4 days. A second set of solutions was stored at 5° C. and manually shaken several times per day. After 4 days, each solution was filtered to remove undissolved CBD and/or Δ-9-THC, and the concentration of each cannabinoid was measured. Formulations were assessed for solubility at room temperature and at 5° C.

[3] = Equilibrium saturated solubility in HFA-134a (comparative); format: physicochemical; conditions: room temperature
Procedure: as §1, §2

[4] = for solubility at 14 days: organic solvent or mixture; for visual solubility: HFA-152a, after 14 days, ambient conditions or 5° C.

Structure (SMILES) | solubility at 4 days [1] [µg/mL] | solubility at 4 days ([2]; 5° C.) [µg/mL] | solubility at 4 days ([2]; room temperature) [µg/mL] | solubility at 4 days ([3]; organic solvent or mixture, thermodynamic from solid) [µg/mL] | solubility at 14 days ([4]; HFA-152a with 4%, […]) [µg/mL] | visual solubility ([4]; 4% ethanol by weight) | visual solubility ([4]; 5% ethanol by weight) | visual solubility ([4]; 6% ethanol by weight) | equilibrium saturated solubility in HFA-134a ([3]; 4 days) [µg/mL] | solubility at 14 days ([4]; HFA-152a with 1-3% ethanol by weight) [µg/mL] | visual solubility ([4]; 1% ethanol by weight) | visual solubility ([4]; 2% ethanol by weight) | visual solubility ([4]; 3% ethanol by weight)
CCCCCc1cc(O)c2c(c1)OC(C)(C)[C@@H]1CCC(C)=C[C@@H]21 [Δ-9-THC, (6aR,10aR)-6,6,9-trimethyl-3-pentyl-6a,7,8,10a-tetrahydro-6H-benzo[c]chromen-1-ol] | 1500 (≈ 4.77 mM) | ≥ 21800 | ≥ 24700 | 2300 (≈ 7.31 mM) | ≥ 15900 | Soluble | Soluble | Soluble |  |  |  |  | 
C=C(C)[C@@H]1CCC(C)=C[C@H]1c1c(O)cc(CCCCC)cc1O [CBD, 2-[(1R,6R)-6-Isopropenyl-3-methylcyclohex-2-en-1-yl]-5-pentylbenzene-1,3-diol] | 1800 (≈ 5.72 mM) | ≥ 16400 | ≥ 15700 |  |  |  |  |  | 2500 | ≥ 15900 | Soluble | soluble | soluble
